Results on six substances are retold here after US6737407B1, “Treatment of obesity” (Metabolic Pharmaceuticals, Ltd., priority 1997, dated 2004).

Bridges are numbered along the chain shown (N, C = ends). Where no end group is shown, it is not given here.

In assay [1] the test system is adipose tissues from male Zucker fatty (fa/fa) rats. Nature of the assay: In vitro glycerol release during lipolysis in isolated adipose tissue. The class given is cell-based, rat. How it is done: (§1) Adipose tissues were removed from animals and sliced into segments of approximately 200 mg each. Then the tissues were pre-incubated in 25 ml vials containing 2 ml of Krebs-Ringerbicarbonate (KRB) buffer, 4% defatted BSA and 5.5 mM glucose under an atmosphere of carbogen (95%O2/ 5%CO2) at 37° C. for 1 hour. Tissues were then transferred to another vials with fresh medium and the incubation was initiated by adding hGH 177-191 peptide or analogues into the vials. The mixtures were then incubated at 37° C. for 90 minutes. After incubation, the tissues wee removed and aliquots (200 μl) of samples withdrawn from the medium were assayed for the contents of glycerol or free fatty acid (FFA) either by the enzyme assay (glycerol kinase) or calorimetric (copper-dye) spectrometry. The NADH or color produced was then monitored by the absorption at 340 nm and 610 nm, respectively.

Assay [2] has as its system C57BL/6J (ob/ob) mice. Briefly: Chronic treatment of C57BL/6J (ob/ob) mice with peptide analogues. In kind it is in vivo, mouse. How it is done:
Animals were given a daily intraperitoneal injection of either saline (as control) or peptide analogue (500 μg/kg body weight). Each point represents the mean±SEM of 6 animals.
The treatment for the two groups of animals was as described in FIG. 11A. Each point represents the mean±SEM of 6 animals.
The animals of the same age and same sex were randomly divided into two groups, housed 6 per cage and maintained on a normal 12-hr light/dark cycle at a constant room temperature of 25° C. in the animal house of the Department of Biochemistry and—Molecular Biology, Monash University, Clayton, Australia. Animals were fed ad libitum on pre-determined quantity of animal pellets (Clark King, Melboume, Australia) and allowed free access to water at all times. The animals were given a daily intraperitoneal (i.p) injection of 0.1 ml of either the synthetic peptide (200-500 μg/kg body weight) or equivalent volume of physiological saline (0.9% sodium chloride) for appropriate number of days. The i.p. injection was administered with a 30G×½″ (0.31×13 mm) needle on a 1-ml disposable tuberculin syringes, and the site of injection was the lower left quadrant of the abdomen of the animals. To study the effects of controlled-delivery of hGH 177-191 and analogues, slow-release peptide-pellets in a diameter of 3 mm were implanted intradermally in the abdominal region of Zucker rats under anaesthesia. The body weight and food intake were monitored for the periods of time as indicated.
Cumulative weight gain and food consumption were determined at 3-day intervals by the measurements of body weight and uneaten food remaining in the cages. The animals were placed in a covered chamber to minimise movement during the weighing procedure. The food consumption data were obtained by subtracting the amount of uneaten food remaining in the cages from the original provision.
The animals were anaesthetised with sodium pentobarbitone (80 mg/kg body weight) 12 hr after the last dose of hGH 177-191. Blood samples were collected from the tail vein of anaesthetised animals 45 mins after the administration of anaesthetic. After being centrifuged at 2000×g for 5 minutes, plasma was removed from the samples and used for metabolite assays. Triglyceride and total cholesterol in plasma were measured by enzyme-spectrophotometric methods. The reagents are based on either a modified glycerol phosphate oxidase (GPO)-Trinder's type colour reaction^24 or a cholesterol oxidase-4-aminoantipyrine method^25. All assays were performed with the CentrifiChem System 400 (Union Carbide) containing an automated pipetter, a centrifugal analyser and a recording spectrophotometer. Seronorm Lipid (Nycomed Pharma Co., Oslo, Norway) was used as the calibrator.

The test system of assay [3] is adipose tissues from male Zucker fatty (fa/fa) rats. Nature of the assay: In vitro inhibition of lipogenesis in isolated adipose tissue. The class given is cell-based, rat. The following applies: structure-activity summary. How it is done:
(§2) The rate of the incorporation of exogenous [C^14]-glucose into total lipid in adipose tissue was measured as the index of anti-lipogenic activity of hGH 177-191.
(§3) Adipose tissues were sliced into segments of approximately 200 mg each and then placed in Krebs-Ringer bicarbonate (KRB) buffer (pH 7.4) containing 2% defatted BSA, and glucose (0.1 mg/ml) and gassed with 95% O2-5% CO2 at 37° C. After 1 hr preincubation, the tissues were transferred to another 2 ml of fresh media containing [C^14]-glucose (final specific activity 0.05 μCi/μmol), and 0.3 μM of hGH 177-191 in the presence or absence of insulin (0.1 mU/ml) for a further 90 min incubation (conditions as above). Then the tissues were removed, washed thoroughly with KRB buffer and lipid was extracted with 5 ml of chlorofom/methanol (2:1, v/v) The extraction solution was washed with 2 ml of MeOH-H2O solution containing 0.1% MgCl2. A 2.5 ml aliquot of the washed extraction solution was taken and transferred to scintillation vials. The [C^14] radioactivity was measured with a liquid scintillation counter. The rates of total lipid synthesis were expressed as μmol [C^14]-glucose incorporated into lipid/g tissue/hr.

The subject of assay [4] is Human Abdominal adipose Tissue. Briefly: Antilipogenic activity in human abdominal adipose tissue. The class given is cell-based. The following applies: 0.1 μM peptide; BSA + insulin. How it is done:
as §2
as §3, with “and 0.3 μM of hGH 177-191 in the presence or absence” left out
(§4) Tables 6 and 7 show the in vitro antilipogenic and lipolytic activity of hGH 177-191 and two representative analogues (Ref Nos. 9604 and 9605) on human adipose tissue.

The subject of assay [5] is Porcine adipose Tissue. Briefly: Lipolytic activity in porcine adipose tissue. In kind it is cell-based, pig. The following applies: 0.5 μM peptide. As to the method: as §1
Since corresponding sequences of non-human mammals are effectively peptide variants of the human sequence, it is also therefore expected that those corresponding sequences will be effective in other mammals including humans.

In assay [6] the test system is Human Subcutaneous adipose Tissue. Briefly: Lipolytic activity in human subcutaneous adipose tissue. The following applies: 0.5 μM peptide. The class given is cell-based. How it is done:
as §1, §4

[7] abbreviates: Post-treatment (Day 20-38), saline.
Setting [8] is: Treatment (Day 0-18), i.p. 500 μg/kg daily.

With “9401 (LRIVQCRSVEGSCGF; listed as Homo sapiens) [compound 9401]”, the Glycerol release in assay [1] (peptide concentration 0.1 μM) is recorded as 1.82 ± 0.02 μmol/g tissue/hr; in assay [1] (peptide concentration 1.0 μM), 1.86 ± 0.12 μmol/g tissue/hr.

As to “9403 (LRKVQCRSVEGSCGF; disulfide 6-13; listed as Homo sapiens) [compound 9403]”, the Glycerol release in assay [1] (peptide concentration 0.1 μM) stood at 1.80 ± 0.03 μmol/g tissue/hr. This substance came in with a Glycerol release in assay [1] (peptide concentration 1.0 μM) of 1.88 ± 0.13 μmol/g tissue/hr. In addition, the “average daily food consumption / appetite versus control (in words)” value in assay [2] (26-week-old ob/ob mice, FIG. 11B) is “No significance”. Moreover, in assay [2] (setting [7]), the Ave. food consumption is reported as 5.03 ± 0.13 g/mouse/day, the Blood glucose is 6.0 ± 1.0 mM, the Body weight gain was 2.00 ± 0.24 g and the Final body weight is given as 56.70 ± 4.45 g. In assay [2] (setting [7]), this substance displayed a Triglyceride of 0.54 ± 0.15 mM. Moreover, in assay [2] (setting [8]), the Ave. food consumption is given as 4.82 ± 0.22 g/mouse/day, the Blood glucose was found to be 6.2 ± 0.8 mM, the Body weight gain is -0.32 ± 0.23 g and the Final body weight is 54.42 ± 4.66 g. In addition, in assay [2] (setting [8]), the Triglyceride came to 0.49 ± 0.10 mM. This substance also showed an Initial body weight in assay [2] (female ob/ob mice 26 weeks, Treatment (Day 0-18), i.p. 500 μg/kg daily) of 54.74 ± 4.96 g. The Initial body weight in assay [2] (female ob/ob mice, Post-treatment (Day 20-38), saline) worked out at 54.70 ± 4.15 g. The “anti-obesity action on body weight gain (in words)” value in assay [2] (obese mice, FIG. 11A, i.p. 500 μg/kg daily, 18 days) is reported as “anti-obesity actions”.

Consider “9404 (LRIVQCRSVEGSCGF-NH2; disulfide 6-13; N-terminus assumed; SMILES CC[C@H](C)[C@H](NC(=O)[C@H](CCCNC(=N)N)NC(=O)[C@@H](N)CC(C)C)C(=O)N[C@H](C(=O)N[C@@H](CCC(N)=O)C(=O)N[C@H]1CSSC[C@@H](C(=O)NCC(=O)N[C@@H](Cc2ccccc2)C(N)=O)NC(=O)[C@H](CO)NC(=O)CNC(=O)[C@H](CCC(=O)O)NC(=O)[C@H](C(C)C)NC(=O)[C@H](CO)NC(=O)[C@H](CCCNC(=N)N)NC1=O)C(C)C; listed as Homo sapiens) [compound 9404]”, for which the values for the Glycerol release in assay [1] (peptide concentration 0.1 μM) and in assay [1] (peptide concentration 1.0 μM) were 1.75 ± 0.12 μmol/g tissue/hr and 1.94 ± 0.12 μmol/g tissue/hr, respectively.

For “9407 (LRIVQCKSVEGSCGF; disulfide 6-13; listed as Homo sapiens) [compound 9407]”, the “activity according to the in vivo and in vitro assay results (in words)” value in assay [3] is given as “retains activity”. Also, the figures for the Glycerol release in assay [1] (peptide concentration 0.1 μM) and in assay [1] (peptide concentration 1.0 μM) were 1.83 ± 0.11 μmol/g tissue/hr and 1.79 ± 0.07 μmol/g tissue/hr, respectively.

Consider “9604 (YLRIVQCRSVEGSCGF; disulfide 7-14; listed as Homo sapiens) [compound 9604]”, for which the 14C incorporation in assay [4] was found to be 28 ± 3 Av DPM/mg tissue/hour. Moreover, in assay [5], the Glycerol released was 1600 ± 20 nmol/mg tissue/hour. For the same substance, the “cumulative weight gain (in words)” value in assay [2] (16-week old ob/ob mice, chronic treatment, FIG. 12) is “exceptional efficacy”.

As for “9605 (KLRIVQCRSVEGSCGF; disulfide 7-14; listed as Homo sapiens) [compound 9605]”, the 14C incorporation in assay [4] amounted to 36 ± 2 Av DPM/mg tissue/hour. Moreover, the Glycerol released is on record as 1350 ± 80 nmol/mg tissue/hour in assay [5] and 1100 ± 80 nmol/mg tissue/hour in assay [6].
